Measurements reported in patent US20250388565A1, “ESTROGEN RECEPTOR ALPHA DEGRADERS AND METHODS OF USE THEREOF” (Relay Therapeutics, Inc., priority 2022, published 2025).

Target: T1, ERα protein (HiBiT-tagged) in ESR1_HiBiT KI MCF7 cells (Homo sapiens, UniProt P03372)
T1 sequence (P03372 1-595): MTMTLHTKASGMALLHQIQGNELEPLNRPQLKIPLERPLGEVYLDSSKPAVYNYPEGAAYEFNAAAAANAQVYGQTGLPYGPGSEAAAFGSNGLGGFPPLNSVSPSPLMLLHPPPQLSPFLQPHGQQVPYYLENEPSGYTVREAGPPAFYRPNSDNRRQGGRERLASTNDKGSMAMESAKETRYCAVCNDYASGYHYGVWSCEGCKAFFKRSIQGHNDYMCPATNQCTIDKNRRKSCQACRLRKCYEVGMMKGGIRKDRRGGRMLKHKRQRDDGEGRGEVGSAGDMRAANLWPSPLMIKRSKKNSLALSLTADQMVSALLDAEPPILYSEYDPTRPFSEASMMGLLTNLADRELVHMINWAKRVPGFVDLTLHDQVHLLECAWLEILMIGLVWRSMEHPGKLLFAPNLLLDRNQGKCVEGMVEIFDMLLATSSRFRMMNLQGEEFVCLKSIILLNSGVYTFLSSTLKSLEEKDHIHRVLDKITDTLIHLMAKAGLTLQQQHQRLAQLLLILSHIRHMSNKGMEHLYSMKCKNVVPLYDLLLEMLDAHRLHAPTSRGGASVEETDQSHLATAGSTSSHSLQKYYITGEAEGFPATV
Assay: Nano Glo HiBiT Lytic Degradation Assay
Type: cell-based
Conditions: 6 hours with compound, 14-point dose response 1:3, bell-shape curve fit, half-maximal effect of first Hill model, read-out: MCF7 ESR1 HiBiT - (DC50)
Outline: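 HiBiT-tagged endogenous ERα remaining in MCF7 knock-in cells was quantified by lytic luminescence after a 6 h treatment. DC50 values derive from a bell-shaped curve, taken at the first Hill component's half-maximal effect.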

Row | SMILES | DC50 [nM]
1 | O=C1CC[C@H](N2Cc3cc(N4CCN(CC5CCN(c6ccc([C@@H]7c8ccc(B(O)O)cc8CC[C@@H]7c7ccccc7)cc6)CC5)CC4)ccc3C2=O)C(=O)N1 [Compound I-45, ((5R,6S)-5-(4-(4-((4-(2-((S)-2,6-dioxopiperidin-3-yl)-1-oxoisoindolin-5-yl)piperazin-1-yl)methyl)piperidin-1-yl)phenyl)-6-phenyl-5,6,7,8-tetrahydronaphthalen-2-yl)boronic acid] | 3
2 | Cc1cc(N2CCC(CN3CCN(c4ccc5c(c4)CN([C@H]4CCC(=O)NC4=O)C5=O)CC3)CC2)ccc1[C@H]1c2ccc(O)cc2CC[C@H]1c1ccccc1 [Compound I-138, (S)-3-(5-(4-((1-(4-((1S,2R)-6-hydroxy-2-phenyl-1,2,3,4-tetrahydronaphthalen-1-yl)-3-methylphenyl)piperidin-4-yl)methyl)piperazin-1-yl)-1-oxoisoindolin-2-yl)piperidine-2,6-dione] | ≥ 10000
3 | Cc1cc(F)cc(F)c1[C@@H]1CCc2cc(O)ccc2[C@@H]1c1ccc(N2CCC(CN3CCN(c4ccc5c(c4)CN([C@H]4CCC(=O)NC4=O)C5=O)CC3)CC2)cc1 [II-73] | 361
4 | Cn1ccc([C@H]2CCc3cc(O)ccc3[C@H]2c2ccc(N3CCC(CN4CCN(c5ccc6c(c5)CN([C@H]5CCC(=O)NC5=O)C6=O)CC4)CC3)cc2)n1 (single isomer, unassigned) [Compound I-28] | ≥ 10000
5 | O=C1CC[C@H](N2Cc3cc(N4CCN(CC5CCN(c6cc(F)c([C@@H]7c8ccc(O)cc8CC[C@@H]7c7ccccc7)c(F)c6)CC5)CC4)ccc3C2=O)C(=O)N1 [II-102] | 0.15
6 | O=C1CC[C@H](N2Cc3cc(N4CCN(CC5CCN(c6ccc([C@H]7c8ccc(O)cc8C(F)(F)C[C@H]7CC7CCCC7)cc6)CC5)CC4)ccc3C2=O)C(=O)N1 [Compound I-229, (3S)-3-[5-[4-[[1-[4-[(1S,2R)-2-(cyclopentylmethyl)-4,4-difluoro-6-hydroxy-tetralin-1-yl]phenyl]-4-piperidyl]methyl]piperazin-1-yl]-1-oxo-isoindolin-2-yl]piperidine-2,6-dione] | ≥ 10000
7 | [2H]c1c([2H])c([2H])c([C@@H]2CC(F)(F)c3cc(O)ccc3[C@@H]2c2ccc(N3CCC(CN4CCN(c5ccc6c(c5)CN([C@H]5CCC(=O)NC5=O)C6=O)CC4)CC3)cc2)c([2H])c1[2H] [Compound I-336, (S)-3-(5-(4-((1-(4-((1S,2R)-4,4-difluoro-6-hydroxy-2-(phenyl-d5)-1,2,3,4-tetrahydronaphthalen-1-yl)phenyl)piperidin-4-yl)methyl)piperazin-1-yl)-1-oxoisoindolin-2-yl)piperidine-2,6-dione] | 15
8 | O=C1CCC(N2Cc3cc([C@H]4CCN(CC5CCN(c6ccc([C@@H]7c8ccc(O)cc8CC[C@@H]7c7ccccc7)cc6)CC5)C[C@@H]4O)ccc3C2=O)C(=O)N1 (single isomer, unassigned) [II-107] | 3.91
9 | O=C1CC[C@H](N2Cc3cc(N4CCN(CC5CCN(c6ccc([C@@H]7c8ccc(O)cc8CC[C@@H]7C7CCCCC7)cc6)CC5)CC4)ccc3C2=O)C(=O)N1 [Compound I-6, (3S)-3-[5-[4-[[1-[4-[(1R,2R)-2-cyclohexyl-6-hydroxy-tetralin-1-yl]phenyl]-4-piperidyl]methyl]piperazin-1-yl]-1-oxo-isoindolin-2-yl]piperidine-2,6-dione] | 2.24
10 | O=C1CC[C@H](N2Cc3cc(N4CCN(CC5CCN(c6ccc([C@H]7c8ccc(O)cc8CC[C@H]7c7ccc8c(c7)CC8)cc6)CC5)CC4)ccc3C2=O)C(=O)N1 (single isomer, unassigned) [Compound I-58] | 0.048
11 | O=C1CC[C@H](N2Cc3cc(N4CC5(CCN(CC6CCN(c7ccc([C@H]8c9ccc(O)cc9CC[C@H]8c8ccccc8)cc7)CC6)CC5)C4)ccc3C2=O)C(=O)N1 (single isomer, unassigned) [II-96] | ≥ 10000
12 | O=C1CCC(N2Cc3cc(N4CCN(CC5CCN(c6ccc([C@@H]7c8ccc(O)cc8CC[C@@H]7c7cccnc7)cc6)CC5)CC4)ccc3C2=O)C(=O)N1 (single isomer, unassigned) [Compound I-107] | ≥ 10000
13 | C[C@H]1CN(c2ccc3c(c2)CN([C@H]2CCC(=O)NC2=O)C3=O)CCN1CC1CCN(c2ccc([C@H]3c4ccc(O)cc4CC[C@H]3c3ccccc3)cc2)CC1 (single isomer, unassigned) [II-11] | ≥ 10000
14 | O=C1CC[C@H](N2Cc3cc(N4CCN(CC5CCN(c6ccc([C@@H]7c8ccc(O)cc8CO[C@@H]7c7ccccc7F)cc6)CC5)CC4)ccc3C2=O)C(=O)N1 [Compound I-347, (S)-3-(5-(4-((1-(4-((3S,4R)-3-(2-fluorophenyl)-7-hydroxyisochroman-4-yl)phenyl)piperidin-4-yl)methyl)piperazin-1-yl)-1-oxoisoindolin-2-yl)piperidine-2,6-dione] | 0.18
15 | O=C1CCC(c2ccc3c(c2)C[C@@H](N2CCN(CC4CCN(c5ccc([C@@H]6c7ccc(O)cc7CC[C@@H]6c6ccccc6)cc5)CC4)CC2)CC3)C(=O)N1 (single isomer, unassigned) [Compound I-422] | 141
16 | O=C1CC[C@H](N2Cc3cc(N4CCN(CC5CCN(c6ccc([C@H]7c8ccc(O)cc8C(F)(F)C[C@H]7c7ccccc7)cc6)CC5)CC4)ccc3C2=O)C(=O)N1 [Compound I-13] | 13
17 | Cc1ccccc1[C@@H]1CCc2cc(O)ccc2[C@@H]1c1ccc(N2CCC(CN3CCN(c4ccc5c(c4)CN([C@H]4CCC(=O)NC4=O)C5=O)CC3)CC2)cc1 (single isomer, unassigned) [II-35] | 0.34
18 | O=C1CC[C@H](N2Cc3cc(N4CCN(CC5CCN(c6ccc([C@@H]7c8ccc(O)cc8C(F)(F)C[C@@H]7C7CCCCC7)cc6)CC5)CC4)ccc3C2=O)C(=O)N1 [Compound I-99, (S)-3-(5-(4-((1-(4-((1R,2R)-2-cyclohexyl-4,4-difluoro-6-hydroxy-1,2,3,4-tetrahydronaphthalen-1-yl)phenyl)piperidin-4-yl)methyl)piperazin-1-yl)-1-oxoisoindolin-2-yl)piperidine-2,6-dione] | 0.67
19 | O=C1CC[C@H](N2Cc3cc(N4CCN(CC5CCN(c6ccc([C@@H]7c8ccc(O)cc8C(F)(F)C[C@@H]7c7ccccc7)cc6F)CC5)CC4)ccc3C2=O)C(=O)N1 [Compound I-194, (S)-3-(5-(4-((1-(4-((1R,2S)-4,4-difluoro-6-hydroxy-2-phenyl-1,2,3,4-tetrahydronaphthalen-1-yl)-2-fluorophenyl)piperidin-4-yl)methyl)piperazin-1-yl)-1-oxoisoindolin-2-yl)piperidine-2,6-dione] | 0.41
20 | O=C1CC[C@H](N2Cc3cc(N4CCN(CC5CCN(c6ccc([C@H]7c8ccc(O)cc8C(F)(F)C[C@H]7c7ccccc7)c(F)c6)CC5)CC4)ccc3C2=O)C(=O)N1 [Compound I-307, (S)-3-(5-(4-((1-(4-((1R,2R)-4,4-difluoro-6-hydroxy-2-phenyl-1,2,3,4-tetrahydronaphthalen-1-yl)-3-fluorophenyl)piperidin-4-yl)methyl)piperazin-1-yl)-1-oxoisoindolin-2-yl)piperidine-2,6-dione] | 19
21 | O=C1CC[C@H](N2Cc3cc(N4CCN(CC5CCN(c6ccc([C@H]7c8ccc(O)cc8CC[C@H]7C7CCCCC7)cc6F)CC5)CC4)ccc3C2=O)C(=O)N1 [Compound I-236, (S)-3-(5-(4-((1-(4-((1S,2S)-2-cyclohexyl-6-hydroxy-1,2,3,4-tetrahydronaphthalen-1-yl)-2-fluorophenyl)piperidin-4-yl)methyl)piperazin-1-yl)-1-oxoisoindolin-2-yl)piperidine-2,6-dione] | 72
22 | O=C1CCC(N2Cc3cc(N4CCN(CC5CCN(c6ccc([C@@H]7c8ccc(O)cc8CC[C@@H]7C7CCC(F)(F)CC7)cc6)CC5)CC4)ccc3C2=O)C(=O)N1 (single isomer, unassigned) [Compound I-54] | 742
23 | Cn1nc(C2CCC(=O)NC2=O)c2ccc(N3CCN(CC4CCN(c5ccc([C@@H]6c7ccc(O)cc7CC[C@@H]6c6ccccc6)cc5)CC4)CC3)cc21 (stereo partly drawn) [Compound I-188, 3-(6-(4-((1-(4-((1R,2S)-6-hydroxy-2-phenyl-1,2,3,4-tetrahydronaphthalen-1-yl)phenyl)piperidin-4-yl)methyl)piperazin-1-yl)-1-methyl-1H-indazol-3-yl)piperidine-2,6-dione] | 1.23
24 | O=C1CC[C@H](N2Cc3cc(N4CCN(CC5CCN(c6ccc([C@H]7c8ccc(O)cc8CO[C@H]7CC7CCCC7)cc6)CC5)CC4)ccc3C2=O)C(=O)N1 (single isomer, unassigned) [Compound I-233] | 31
25 | O=C1CC[C@H](N2Cc3cc(N4CCN(CC5CCN(c6ccc([C@@H]7c8ccc(Br)cc8CC[C@@H]7c7ccccc7)cc6)CC5)CC4)ccc3C2=O)C(=O)N1 [II-62] | ≥ 10000
26 | O=C1CC[C@H](N2Cc3cc(N4CCN(CCC5CCN(c6ccc([C@H]7c8ccc(O)cc8CC[C@H]7c7ccccc7)cc6)CC5)CC4)ccc3C2=O)C(=O)N1 [II-98] | ≥ 10000
